Results taken from PubChem BioAssay (NCI).
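A five-concentration, 48-hour dose response in 96-well plates underlies each endpoint, interpolated linearly between surrounding concentrations. Abbreviation: GI50, concentration required for 50% inhibition of growth. Definition used: TGI = concentration required for complete inhibition of growth.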

Tests used:
Test in all cases: inhibition of tumour cell growth, NCI panel, 48 h
ACHN renal = test system: ACHN renal
SF-268 CNS = test system: SF-268 CNS
SK-OV-3 ovarian = test system: SK-OV-3 ovarian
LOX IMVI melanoma = test system: LOX IMVI melanoma
OVCAR-8 ovarian = test system: OVCAR-8 ovarian
IGROV1 ovarian = test system: IGROV1 ovarian
HT29 colon = test system: HT29 colon
HS 578T breast = test system: HS 578T breast
M14 melanoma = test system: M14 melanoma
SNB-75 CNS = test system: SNB-75 CNS
K-562 leukemia = test system: K-562 leukemia
OVCAR-4 ovarian = test system: OVCAR-4 ovarian
MDA-MB-231 breast = test system: MDA-MB-231 breast
HL-60(TB) leukemia = test system: HL-60(TB) leukemia
BT-549 breast = test system: BT-549 breast
A498 renal = test system: A498 renal
NCI-H226 lung = test system: NCI-H226 lung
COLO 205 colon = test system: COLO 205 colon
CAKI-1 renal = test system: CAKI-1 renal
OVCAR-5 ovarian = test system: OVCAR-5 ovarian
SF-295 CNS = test system: SF-295 CNS
A549 NSCLC = test system: A549 NSCLC
RPMI-8226 leukemia = test system: RPMI-8226 leukemia
EKVX NSCLC = test system: EKVX NSCLC
SK-MEL-5 melanoma = test system: SK-MEL-5 melanoma
TK-10 renal = test system: TK-10 renal
SK-MEL-28 melanoma = test system: SK-MEL-28 melanoma
CCRF-CEM leukemia = test system: CCRF-CEM leukemia
HOP-62 NSCLC = test system: HOP-62 NSCLC

Which results are given for `CN(C)CCCOc1c2ccccc2nc2c1oc1ccc(Cl)cc12`?
TGI (ACHN renal): 11.5 µM; GI50 (SF-268 CNS): 3.8 µM; TGI (SF-268 CNS): 17 µM; GI50 (SK-OV-3 ovarian): 4.6 µM; TGI (SK-OV-3 ovarian): 16.7 µM; GI50 (LOX IMVI melanoma): 1480 nM; TGI (LOX IMVI melanoma): 3.08 µM; GI50 (OVCAR-8 ovarian): 3.28 µM; TGI (OVCAR-8 ovarian): 14.2 µM; GI50 (IGROV1 ovarian): 3.61 µM; TGI (IGROV1 ovarian): 13 µM; GI50 (HT29 colon): 2560 nM; TGI (HT29 colon): 11.7 µM; GI50 (HS 578T breast): 3.76 µM; TGI (HS 578T breast): 19.7 µM; GI50 (M14 melanoma): 3.04 µM; TGI (M14 melanoma): 11 µM; GI50 (SNB-75 CNS): 2600 nM; TGI (SNB-75 CNS): 11.8 µM; GI50 (K-562 leukemia): 2790 nM; TGI (K-562 leukemia): > 100 µM; GI50 (OVCAR-4 ovarian): 2420 nM; TGI (OVCAR-4 ovarian): 7.45 µM; GI50 (MDA-MB-231 breast): 2640 nM; TGI (MDA-MB-231 breast): 10.5 µM; GI50 (HL-60(TB) leukemia): 3.13 µM; TGI (HL-60(TB) leukemia): 14.1 µM; GI50 (BT-549 breast): 5.17 µM; TGI (BT-549 breast): 18.5 µM; GI50 (A498 renal): 10.4 µM; TGI (A498 renal): 23.6 µM; GI50 (NCI-H226 lung): 3.02 µM; TGI (NCI-H226 lung): 9.95 µM; GI50 (COLO 205 colon): 2490 nM; TGI (COLO 205 colon): 9.76 µM; GI50 (CAKI-1 renal): 2630 nM; TGI (CAKI-1 renal): 11.3 µM; GI50 (OVCAR-5 ovarian): 4.04 µM; TGI (OVCAR-5 ovarian): 15.9 µM; GI50 (SF-295 CNS): 3.82 µM; TGI (SF-295 CNS): 15 µM; GI50 (A549 NSCLC): 2800 nM; TGI (A549 NSCLC): 10.6 µM; GI50 (RPMI-8226 leukemia): 2700 nM; TGI (RPMI-8226 leukemia): 7.56 µM; GI50 (EKVX NSCLC): 3.68 µM; TGI (EKVX NSCLC): 14.7 µM; GI50 (SK-MEL-5 melanoma): 9.28 µM; TGI (SK-MEL-5 melanoma): 21.3 µM; GI50 (TK-10 renal): 5.16 µM; TGI (TK-10 renal): 17.1 µM; GI50 (SK-MEL-28 melanoma): 4.56 µM; TGI (SK-MEL-28 melanoma): 16.5 µM; GI50 (CCRF-CEM leukemia): 4.12 µM; TGI (CCRF-CEM leukemia): 46.1 µM; GI50 (HOP-62 NSCLC): 3.66 µM; TGI (HOP-62 NSCLC): 15.5 µM
